Reference: US4442044A, “Process for preparing monoesters and diesters of N-alkyl substituted amino methyl phosphonic acid” (priority 1983, dated 1984)

Tests used:
Test in all cases: post-emergent herbicidal activity, greenhouse
Type in all cases: in vivo
[1] = test system: Morningglory
Outline: (§1)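 Post-emergence foliar spray at tabulated application rates, using aliquots of a 1.0% stock in acetone, THF or water plus ~0.4% emulsifier, applied to 2–3-week-old greenhouse plants. Plant injury was rated relative to controls roughly two and four weeks after treatment.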

[2] = test system: Downy Brome
Outline: as §1

[3] = test system: Soybean; settings: Table II
Outline: as §1

[4] = test system: Rice; settings: Table II
Outline: as §1

[5] = test system: Sorghum; settings: Table II
Outline: as §1

[6] = test system: Velvetleaf
Outline: as §1

[7] = test system: Crabgrass; settings: Table II
Outline: as §1

[8] = test system: Lambsquarters
Outline: as §1

[9] = test system: Johnsongrass; settings: Table I, 4 WAT
Outline: as §1

[10] = test system: Smartweed
Outline: as §1

[11] = test system: Quackgrass; settings: Table I, 4 WAT
Outline: as §1

[12] = test system: Hemp Sesbania; settings: Table II
Outline: as §1

[13] = test system: Panicum Spp; settings: Table II
Outline: as §1

[14] = test system: Wheat; settings: Table II
Outline: as §1

[15] = test system: Yellow Nutsedge; settings: Table I, 4 WAT
Outline: as §1

[16] = test system: Canada Thistle; settings: Table I, 4 WAT
Outline: as §1

[17] = test system: Wild Buckwheat; settings: Table II
Outline: as §1

[18] = test system: Barnyardgrass
Outline: as §1

[19] = test system: Cocklebur
Outline: as §1

[20] = test system: Sugar Beet; settings: Table II
Outline: as §1

In the case of CCOC(=O)CNCP(=O)(O)OC(C)C(=O)OC (stereo not drawn) [Example 28, propanoic acid, 2-[[[[(2-ethoxy-2-oxoethyl)amino]methyl]hydroxyphosphinyl]oxy]-, methyl ester], the “post-emergent herbicidal activity index” value ([1]; Table I, 4 WAT, 5.6 kg/h) is reported as 1 (25-49% control), the “post-emergent herbicidal activity index” value ([1]; Table I, 4 WAT, 11.2 kg/h) is reported as 3 (75-99% control) and the “post-emergent herbicidal activity index” value ([1]; Table II, 2 WAT, 1.12 kg/h) is reported as 1 (25-49% control). For the same compound, the “post-emergent herbicidal activity index” value ([1]; Table II, 4 WAT, 5.6 kg/h) was 2 (50-74% control), the “post-emergent herbicidal activity index” value ([2]; Table I, 4 WAT, 5.6 kg/h) was 1 (25-49% control) and the “post-emergent herbicidal activity index” value ([2]; Table I, 4 WAT, 11.2 kg/h) was 1 (25-49% control). The “post-emergent herbicidal activity index” value ([2]; Table II, 2 WAT, 1.12 kg/h) was 0 (0-24% control), the “post-emergent herbicidal activity index” value ([2]; Table II, 4 WAT, 5.6 kg/h) was 0 (0-24% control) and the “post-emergent herbicidal activity index” value ([3]; 2 WAT, 1.12 kg/h) was 1 (25-49% control). The “post-emergent herbicidal activity index” value ([3]; 4 WAT, 5.6 kg/h) was 1 (25-49% control), the “post-emergent herbicidal activity index” value ([4]; 2 WAT, 1.12 kg/h) was 0 (0-24% control) and the “post-emergent herbicidal activity index” value ([4]; 4 WAT, 5.6 kg/h) was 2 (50-74% control). For the same compound, the “post-emergent herbicidal activity index” value ([5]; 2 WAT, 1.12 kg/h) was 0 (0-24% control), the “post-emergent herbicidal activity index” value ([5]; 4 WAT, 5.6 kg/h) was 2 (50-74% control) and the “post-emergent herbicidal activity index” value ([6]; Table I, 4 WAT, 5.6 kg/h) was 0 (0-24% control). For the same compound, the “post-emergent herbicidal activity index” value ([6]; Table I, 4 WAT, 11.2 kg/h) was 2 (50-74% control), the “post-emergent herbicidal activity index” value ([6]; Table II, 2 WAT, 1.12 kg/h) was 0 (0-24% control) and the “post-emergent herbicidal activity index” value ([6]; Table II, 4 WAT, 5.6 kg/h) was 0 (0-24% control). The “post-emergent herbicidal activity index” value ([7]; 2 WAT, 1.12 kg/h) was 2 (50-74% control), the “post-emergent herbicidal activity index” value ([7]; 4 WAT, 5.6 kg/h) was 3 (75-99% control) and the “post-emergent herbicidal activity index” value ([8]; Table I, 4 WAT, 5.6 kg/h) was 0 (0-24% control). For the same compound, the “post-emergent herbicidal activity index” value ([8]; Table I, 4 WAT, 11.2 kg/h) was 3 (75-99% control), the “post-emergent herbicidal activity index” value ([8]; Table II, 2 WAT, 1.12 kg/h) was 0 (0-24% control) and the “post-emergent herbicidal activity index” value ([8]; Table II, 4 WAT, 5.6 kg/h) was 1 (25-49% control). For the same compound, the “post-emergent herbicidal activity index” value ([9]; 5.6 kg/h) was 2 (50-74% control), the “post-emergent herbicidal activity index” value ([9]; 11.2 kg/h) was 3 (75-99% control) and the “post-emergent herbicidal activity index” value ([10]; Table I, 4 WAT, 5.6 kg/h) was 0 (0-24% control). The “post-emergent herbicidal activity index” value ([10]; Table I, 4 WAT, 11.2 kg/h) was 3 (75-99% control), the “post-emergent herbicidal activity index” value ([10]; Table II, 2 WAT, 1.12 kg/h) was 0 (0-24% control) and the “post-emergent herbicidal activity index” value ([10]; Table II, 4 WAT, 5.6 kg/h) was 1 (25-49% control). For the same compound, the “post-emergent herbicidal activity index” value ([11]; 5.6 kg/h) was 0 (0-24% control), the “post-emergent herbicidal activity index” value ([11]; 11.2 kg/h) was 2 (50-74% control) and the “post-emergent herbicidal activity index” value ([12]; 2 WAT, 1.12 kg/h) was 0 (0-24% control). For the same compound, the “post-emergent herbicidal activity index” value ([12]; 4 WAT, 5.6 kg/h) was 3 (75-99% control), the “post-emergent herbicidal activity index” value ([13]; 2 WAT, 1.12 kg/h) was 0 (0-24% control) and the “post-emergent herbicidal activity index” value ([13]; 4 WAT, 5.6 kg/h) was 2 (50-74% control). For the same compound, the “post-emergent herbicidal activity index” value ([14]; 2 WAT, 1.12 kg/h) was 0 (0-24% control), the “post-emergent herbicidal activity index” value ([14]; 4 WAT, 5.6 kg/h) was 1 (25-49% control) and the “post-emergent herbicidal activity index” value ([15]; 5.6 kg/h) was 1 (25-49% control). The “post-emergent herbicidal activity index” value ([15]; 11.2 kg/h) was 3 (75-99% control), the “post-emergent herbicidal activity index” value ([16]; 5.6 kg/h) was 1 (25-49% control) and the “post-emergent herbicidal activity index” value ([16]; 11.2 kg/h) was 1 (25-49% control). For the same compound, the “post-emergent herbicidal activity index” value ([17]; 2 WAT, 1.12 kg/h) was 0 (0-24% control), the “post-emergent herbicidal activity index” value ([17]; 4 WAT, 5.6 kg/h) was 0 (0-24% control) and the “post-emergent herbicidal activity index” value ([18]; Table I, 4 WAT, 5.6 kg/h) was 2 (50-74% control). The “post-emergent herbicidal activity index” value ([18]; Table I, 4 WAT, 11.2 kg/h) was 2 (50-74% control), the “post-emergent herbicidal activity index” value ([18]; Table II, 2 WAT, 1.12 kg/h) was 1 (25-49% control) and the “post-emergent herbicidal activity index” value ([18]; Table II, 4 WAT, 5.6 kg/h) was 3 (75-99% control). The “post-emergent herbicidal activity index” value ([19]; Table I, 4 WAT, 5.6 kg/h) was 1 (25-49% control), the “post-emergent herbicidal activity index” value ([19]; Table I, 4 WAT, 11.2 kg/h) was 2 (50-74% control) and the “post-emergent herbicidal activity index” value ([19]; Table II, 2 WAT, 1.12 kg/h) was 0 (0-24% control). The “post-emergent herbicidal activity index” value ([19]; Table II, 4 WAT, 5.6 kg/h) was 2 (50-74% control), the “post-emergent herbicidal activity index” value ([20]; 2 WAT, 1.12 kg/h) was 0 (0-24% control) and the “post-emergent herbicidal activity index” value ([20]; 4 WAT, 5.6 kg/h) was 0 (0-24% control).
